Experimental data from paper PMC8174188 (Neuron, 2021).
One block for each molecule: values may come before it.

Columns and labels:
[1] = target: T1, dSARM1^ARM (Drosophila SARM1 ARM domain) (Drosophila melanogaster, UniProt Q6IDD9); test: ITC; assay type: binding
T1 sequence (Q6IDD9 307-678): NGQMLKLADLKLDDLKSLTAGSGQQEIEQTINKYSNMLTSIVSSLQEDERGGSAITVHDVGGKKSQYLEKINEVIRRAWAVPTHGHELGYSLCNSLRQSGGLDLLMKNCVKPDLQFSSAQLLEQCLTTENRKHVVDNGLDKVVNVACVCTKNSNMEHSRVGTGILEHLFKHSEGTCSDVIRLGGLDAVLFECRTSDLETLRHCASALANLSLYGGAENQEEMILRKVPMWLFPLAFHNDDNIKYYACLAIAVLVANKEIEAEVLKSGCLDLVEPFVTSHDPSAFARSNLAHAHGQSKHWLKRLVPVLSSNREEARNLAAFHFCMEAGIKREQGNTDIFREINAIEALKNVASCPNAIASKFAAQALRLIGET

[2] = target: dSARM1^ARM (Drosophila SARM1 ARM domain) (Drosophila melanogaster, UniProt Q6IDD9, R437A); test: ITC; assay type: binding
cryo-EM structure = target: the molecule itself; test: cryo-EM structure

Chain of dSARM1^ARM (Drosophila SARM1 ARM domain) (Drosophila melanogaster, UniProt Q6IDD9, R437A) (Q6IDD9 307-678 R437A): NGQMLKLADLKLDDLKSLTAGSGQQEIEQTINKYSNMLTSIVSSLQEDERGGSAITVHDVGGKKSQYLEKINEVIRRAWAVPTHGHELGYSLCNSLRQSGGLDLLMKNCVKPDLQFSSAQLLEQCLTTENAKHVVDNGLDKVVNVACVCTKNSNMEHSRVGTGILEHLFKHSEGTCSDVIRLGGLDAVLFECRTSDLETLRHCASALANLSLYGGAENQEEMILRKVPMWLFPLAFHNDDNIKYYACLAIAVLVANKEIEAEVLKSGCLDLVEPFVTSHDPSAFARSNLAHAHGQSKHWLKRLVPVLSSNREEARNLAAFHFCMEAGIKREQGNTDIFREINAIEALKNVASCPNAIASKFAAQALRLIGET

- Kd [1]: 54.2 ± 6.4 µM
Molecule: NC(=O)c1ccc[n+]([C@@H]2O[C@H](COP(=O)([O-])OP(=O)(O)OC[C@H]3O[C@@H](n4cnc5c(N)ncnc54)[C@H](O)[C@@H]3O)[C@@H](O)[C@H]2O)c1 [NAD^+]

Molecule: NC(=O)c1ccc[n+]([C@@H]2O[C@H](COP(=O)([O-])O)[C@@H](O)[C@H]2O)c1 [NMN]
- Kd [2]: 12.45 ± 0.03 µM

B1: human SARM1 lacking the mitochondrial localisation signal (residues 28-724) (enzyme, UniProt Q6SZW1-1 28-724, looked up)
chain: LAVPGPDGGGGTGPWWAAGGRGPREVSPGAGTEVQDALERALPELQQALSALKQAGGARAVGAGLAEVFQLVEEAWLLPAVGREVAQGLCDAIRLDGGLDLLLRLLQAPELETRVQAARLLEQILVAENRDRVARIGLGVILNLAKEREPVELARSVAGILEHMFKHSEETCQRLVAAGGLDAVLYWCRRTDPALLRHCALALGNCALHGGQAVQRRMVEKRAAEWLFPLAFSKEDELLRLHACLAVAVLATNKEVEREVERSGTLALVEPLVASLDPGRFARCLVDASDTSQGRGPDDLQRLVPLLDSNRLEAQCIGAFYLCAEAAIKSLQGKTKVFSDIGAIQSLKRLVSYSTNGTKSALAKRALRLLGEEVPRPILPSVPSWKEAEVQTWLQQIGFSKYCESFREQQVDGDLLLRLTEEELQTDLGMKSGITRKRFFRELTELKTFANYSTCDRSNLADWLGSLDPRFRQYTYGLVSCGLDRSLLHRVSEQQLLEDCGIHLGVHRARILTAAREMLHSPLPCTGGKPSGDTPDVFISYRRNSGSQLASLLKVHLQLHGFSVFIDVEKLEAGKFEDKLIQSVMGARNFVLVLSPGALDKCMQDHDCKDWVHKEIVTALSCGKNIVPIIDGFEWPEPQVLPEDMQAVLTFNGIKWSHEYQEATIEKIIRFLQGRSSRDSSAGSDTSLEGAAPMGPT
- stoichiometry N (cryo-EM structure): 8
